{"source": "patent US7410995B1", "about": "“N-linked sulfonamide of heterocyclic thioesters for vision and memory disorders” (GPI Nil Holdings Inc., priority 1998, dated 2008)", "key": {"FKBP12": {"biological_target": "FKBP12 (Homo sapiens, UniProt P62942)", "sequence (P62942 whole entry, species assumed)": "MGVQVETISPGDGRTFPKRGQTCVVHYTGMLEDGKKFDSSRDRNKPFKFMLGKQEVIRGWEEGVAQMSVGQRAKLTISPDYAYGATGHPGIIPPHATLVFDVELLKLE", "test": "Ki test procedure: inhibition of peptidyl-prolyl isomerase (rotamase) activity, chymotrypsin-coupled assay", "assay_type": "biochemical", "conditions": "Table V comments; read-out: Ki rotomase", "excerpt": "The inhibition of the prolyl peptidyl cis-trans isomerase activity of FKBP may be measured as an indicator of this affinity. Inhibition of the peptidyl-prolyl isomerase (rotamase) activity of the compounds used in the inventive methods and pharmaceutical compositions can be evaluated by known methods described in the literature (Harding et al., Nature, 1989, 341:758-760; Holt et al. J. Am. Chem. Soc., 115:9923-9938). […] The inhibition of this reaction caused by the addition of different concentrations of inhibitor is determined, and the data is analyzed as a change in first-order rate constant as a function of inhibitor concentration to yield the apparent Ki values. […] The reaction is initiated by the addition of […] of substrate (succinyl-[…]-nitroanilide, 5 mg/mL in 2.35 mM LiCl in trifluoroethanol). The absorbance at 390 nm versus time is monitored for 90 seconds using a spectrophotometer and the rate constants are determined from the absorbance versus time data files."}, "[1]": {"test": "Clearance (Table V comments)", "assay_type": "in vitro ADME"}, "[2]": {"system": "retinal ganglion cell axons", "test": "Protection of retinal ganglion cell axons from degeneration following optic nerve transection (Table V)", "assay_type": "in vivo", "conditions": "± SEM", "excerpt": "Efficacy of representative compounds from different immunophilin ligand series in protecting retinal ganglion cell axons from degeneration following optic nerve transection is set forth in Table V."}, "[3]": {"system": "retinal ganglion cells and optic nerve axons", "test": "In vivo retinal ganglion cell and optic nerve axon tests after optic nerve transection (Example 6, Table 1)", "set-up": "species or system Sprague Dawley rats", "conditions": "for Proximal optic nerve myelin basic protein Density: SEM, % areal coverage of optic nerve cross section; for increased ON axon density: adjusted for optic nerve diameter; for Distal optic nerve stump shrinkage: cross sectional area compared to sham control; for Distal optic nerve myelin basic protein Density: cross sectional area multiplied by myelin density", "excerpt": "All eyes and optic nerves stumps were removed."}, "retinal ganglion cells [4]": {"system": "retinal ganglion cells", "test": "Retinal ganglion cell survival and axonal dying back following optic nerve transection (Example 17)", "assay_type": "in vivo, Sprague Dawley rats", "conditions": "GPI-1046 10 mg/kg/day s.c. for 28 days", "excerpt": "Transection of the mammalian optic nerve results in a brief period of abortive regeneration, but the majority of axotomized neurons die and the axons from many persisting ganglion cells die back beyond the optic nerve head."}, "retinal ganglion cells [5]": {"system": "retinal ganglion cells", "test": "Retinal ischemia: retinal ganglion cell, optic nerve axon and myelin degeneration (FIGS. 1, 2)", "assay_type": "in vivo, rats", "excerpt": "Retinal ganglion cells were retrogradely labeled in adult rats by bilateral injection of fluorogold in their lateral geniculate nuclei. Labeled ganglion cells in the normal rat retina appear as white profiles against the dark background (FIG. 1A). Complete retinal ischemia was produced by infusing normal saline solution into the retinal vitreous cavity of each eye until the intraocular pressure exceeded arterial blood pressure. 28 days after the ischemic episode extensive degeneration of retinal ganglion cell was evidenced by massive reduction in the density of fluorogold labeled cells (FIG. 1B). […] FIG. 2. […] Optic nerves from vehicle treated cases examined 28 days after a 1 hour retinal ischemic episode are characterized by a decreased density of optic nerve axons and the appearance of numerous degenerating myelin figures (bright white filled circles). […] FIG. 3. […] Few spared fluorogold pre labeled ganglion cells are present in vehicle treated cases (large white figures) among a population of small microglia that digest the debris of the degenerating cells and take up the fluorogold label (FIG. 3A). […] FIG. 4. […] 90 days after transection few ganglion cell axons remain within the optic nerve (FIG. 4B), representing only 5.6% of the normal population. The loss of axons reflects both the death of retinal ganglion cells and the regression or “dying back” of the axons of ˜70% of the small surviving ganglion cell population into the retina itself (Table 1). […] FIG. 5. […] FIG. 6. […] 90 days after transection extensive degeneration of myelin is evident in vehicle treated cases, characterized by the loss of fascicular organization and the appearance of numerous large dense degenerating myelin figures (FIG. 6B, upper right). […] FIG. 7. FKBP-12 immunohistochemistry labels oligodendroglia (large dark cells with fibrous processes), the cells which produce myelin, located between the fascicles of optic nerve fibers, and also some optic nerve axons. FIG. 8. […]"}, "retina": {"system": "retina", "test": "Streptozotocin induced diabetes: retinal neovascularization and neuron loss (FIG. 9)", "assay_type": "in vivo"}, "[6]": {"test": "Peripheral sensory neuropathy in streptozotocin-induced diabetic rat, hot plate and tail flick (Example 18)", "assay_type": "in vivo, Wistar rats", "conditions": "lesioned animals treated for 6 weeks at 10 mg/kg s.c.", "procedure": "The procedure involved using Male Wistar rats which were given a single injection of streptozotocin (65 mg/kg i.v.). Blood glucose levels were determined weekly for the first three weeks and on the last week of the experiment. Animals were evaluated weekly for signs of sensory neuropathy using the conventional hot plate and tail flick apparatus test procedures."}, "[7]": {"test": "Morris watermaze spatial learning and memory in aged rodents (Example 19)", "assay_type": "in vivo, C57BL/6N-Nia mice", "conditions": "aged impaired mice, daily 10 mg/kg GPI-1046, retention testing after 3 weeks of dosing; listed as GPT-1046, 10 mg/kg", "excerpt": "In all of these tasks, a proportion of aged rats or mice perform as well as the vast majority of young control animals, while other animals display severe impairments in memory function compared to young animals. […] Specifically, rodent spatial learning and memory decline during aging has been accepted by many investigators as an intriguing correlative animal model of human senile dementia. Cholinergic function in the hippocampus has been extensively studied as a component of spatial learning in rodents, and declining hippocampal cholinergic function has been noted in parallel with the development of learning and memory impairments. […] Also, reports on age-related deficits of hippocampal long-term potentiation (LTP)-induction, a reduction in theta rhythm frequency, a loss of experience-dependent plasticity of hippocampal place-units, and reductions in hippocampal protein kinase C are in keeping with the concept that no single underlying pathology can be identified as the cause of age-related behavioral impairment in rodents. However, the various experimental therapeutic approaches that have been undertaken to improve memory function in aged rodents have been somewhat slanted towards the cholinergic hypothesis. The Morris watermaze is widely used for assessing spatial memory formation and retention in experimental animals. […]"}}, "note": "pKi: −log10 of the molar value. “Also recorded” adds a separate entry of the source.", "data": [{"compound": "3-(3-pyridyl)-1-propyl (2s)-1-(3,3-dimethyl-1,2-dioxopentyl)-2-pyrrolidinecarboxylate [GPI 1046]", "values": [{"measurement": "pKi", "setting": "FKBP12", "result": 8.12}, {"measurement": "Clearance", "setting": "[1]", "result": 3.5, "unit": "µL/min"}, {"measurement": "RT 97 RGC axon density 14 days after ON transection", "setting": "[2]", "result": "60.5% ± 3.9 SEM"}]}, {"compound": "CCC(C)(C)C(=O)C(=O)N1CCC[C@H]1C(=O)SCCC(c1ccccc1)c1ccccc1", "note": "[M]", "values": [{"measurement": "RT 97 RGC axon density 14 days after ON transection", "setting": "[2]", "result": "−6.3% ± 3.9% SEM"}]}, {"compound": "O=C(OCCCc1cccnc1)[C@@H]1CCCN1C(=S)NC1CCCCC1", "note": "[I]", "values": [{"measurement": "RT 97 RGC axon density 14 days after ON transection", "setting": "[2]", "result": "23.8% ± 5.3% SEM"}]}, {"compound": "CCC(C)(C)C(=O)C(=O)N1CCC[C@H]1C(=O)CCCCc1cccnc1", "note": "[J]", "values": [{"measurement": "RT 97 RGC axon density 14 days after ON transection", "setting": "[2]", "result": "15.8% ± 4.8% SEM"}]}, {"compound": "CCC(C)(C)C(=O)C(=O)N1CCCC[C@H]1C(=O)SCCC(c1ccccc1)c1ccccc1", "note": "[Compound K]", "values": [{"measurement": "RT 97 RGC axon density 14 days after ON transection", "setting": "[2]", "result": "13.0% ± 4.2% SEM"}]}, {"compound": "CCC(C)(C)C(=O)C(=O)N1CCC[C@H]1C(=O)O", "note": "[L]", "values": [{"measurement": "pKi", "setting": "FKBP12", "result": "< 5.11"}, {"measurement": "RT 97 RGC axon density 14 days after ON transection", "setting": "[2]", "result": "7.8% ± 3.0% SEM"}]}, {"compound": "CCC(C)(C)C(=O)C(=O)N1CCCC[C@H]1C(N)=O", "note": "[H]", "values": [{"measurement": "RT 97 RGC axon density 14 days after ON transection", "setting": "[2]", "result": "30.3% ± 8.0% SEM"}]}, {"compound": "CCC(C)(C)C(=O)C(=O)N1CCC[C@H]1C(=O)OCCCc1cccnc1", "note": "[GPI 1046, 3-(3-pyridyl)-1-propyl (2s)-1-(3,3-dimethyl-1,2-dioxopentyl)-2-pyrrolidinecarboxylate]", "values": [{"measurement": "quantitative recovery in myelin density", "setting": "[3]; GPI 1046 for the first 14 days after transection, proximal stump", "result": 1.60}, {"measurement": "myelin levels, distal stump", "setting": "[3]; GPI 1046 through the first 28 days after transection", "result": "~99 % of normal levels"}, {"measurement": "Proximal optic nerve myelin basic protein Density", "setting": "[3]; ONT/14 days GPI 1046", "result": "did not alter the pattern of myelin degeneration"}, {"measurement": "increased ON axon density", "setting": "[3]; ONT/14 days GPI 1046", "result": 1.5, "unit": "X"}, {"measurement": "Distal optic nerve stump shrinkage", "setting": "[3]; ONT/14 days GPI 1046", "result": "did not protect against shrinkage of the distal stump"}, {"measurement": "Distal optic nerve myelin basic protein Density", "setting": "[3]; ONT/14 days GPI 1046", "result": "slightly increase the density of myelin"}, {"measurement": "Proximal optic nerve myelin basic protein Density", "setting": "[3]; ONT/28 days GPI 1046", "result": "prevents myelin degeneration in the proximal stump"}, {"measurement": "increased ON axon density", "setting": "[3]; ONT/28 days GPI 1046", "result": 5.0, "unit": "X"}, {"measurement": "Distal optic nerve stump shrinkage", "setting": "[3]; ONT/28 days GPI 1046", "result": "prevented cross sectional shrinkage of the distal stump"}, {"measurement": "Distal optic nerve myelin basic protein Density", "setting": "[3]; ONT/28 days GPI 1046", "result": "prevents myelin degeneration in the distal stump"}, {"measurement": "axons of protected neurons in the proximal stump (RT97)", "setting": "retinal ganglion cells [4]; 90 days after transection", "result": "preserved the axons of virtually all protected neurons"}, {"measurement": "ganglion cell population spared", "setting": "retinal ganglion cells [4]; sacrificed 90 days after transection", "result": 25, "unit": "%"}, {"measurement": "protection of retinal ganglion cells (fluorogold labeled) against degeneration", "setting": "retinal ganglion cells [5]; GPI 1046 10 mg/kg s.c. 1 hour prior to ischemia and 10 mg/kg/day for next four days, 28 days after ischemia", "result": "noticeable protection of a large proportion of the vulnerable ganglion cell population; also recorded: protects retinal ganglion cells against degeneration"}, {"measurement": "density of degenerating myelin figures", "setting": "retinal ganglion cells [5]; same retinal ischemia cases, 28 days after 1 hour ischemic episode", "result": "dramatically decreased"}, {"measurement": "degeneration of optic nerve axons", "setting": "retinal ganglion cells [5]; same retinal ischemia cases, 28 days after 1 hour ischemic episode, toluidine blue staining", "result": "protected the majority of optic nerve axons from degeneration; also recorded: prevents degeneration of optic nerve axons and myelin"}, {"measurement": "loss of neurons in the INL and GCL", "setting": "retina; 28 day GPI 1046 treatment beginning 8 weeks after onset of diabetes, compared to streptozotocin/vehicle", "result": "protects neurons in the inner nuclear layer (INL) and ganglion cell layer (GCL) from degeneration"}, {"measurement": "neovascularization in the retina (PR, ONL, OPL, INL)", "setting": "retina; 28 day GPI 1046 treatment beginning 8 weeks after onset of streptozotocin induced diabetes", "result": "reduced neovascularization; also recorded: decreases the extent of neovascularization"}, {"measurement": "latency, hot plate and tail flick", "setting": "[6]", "result": "improvement in latency"}, {"measurement": "spatial memory performance (swim distance), retention testing", "setting": "[7]", "result": "no longer any statistically significant difference"}]}, {"compound": "CCC(C)(C)C(=O)C(=O)N1CCS[C@@H]1C(=O)OCCCc1cccnc1", "note": "[F]", "values": [{"measurement": "RT 97 RGC axon density 14 days after ON transection", "setting": "[2]", "result": "55.1% ± 5.9% SEM"}]}, {"compound": "CCC(C)(C)C(=O)C(=O)N1CCCCC1C(=O)OC(CCc1ccccc1)CCc1ccccc1", "note": "(centres unmarked) [E]", "values": [{"measurement": "Clearance", "setting": "[1]", "result": 41.8, "unit": "µL/min"}]}, {"compound": "CCC(C)(C)C(=O)C(=O)N1CCCC[C@H]1C(=O)O", "note": "[G]", "values": [{"measurement": "RT 97 RGC axon density 14 days after ON transection", "setting": "[2]", "result": "34.0% ± 4.8% SEM"}]}, {"compound": "O=C(SCCCc1ccccc1)[C@@H]1CCCN1S(=O)(=O)Cc1ccccc1", "note": "[C]", "values": [{"measurement": "RT 97 RGC axon density 14 days after ON transection", "setting": "[2]", "result": "60.4% ± 3.1% SEM"}]}, {"compound": "O=C(SCCCc1ccccc1)[C@@H]1CCCN1C(=O)NC12CCC(CC1)C2", "note": "[B]", "values": [{"measurement": "pKi", "setting": "FKBP12", "result": 6.83}, {"measurement": "RT 97 RGC axon density 14 days after ON transection", "setting": "[2]", "result": "100.0% ± 5.2% SEM"}]}]}
